# Measured values taken from paper PMC7725785, “TRIB3 promotes MYC-associated lymphoma development through suppression of UBE3B-mediated MYC degradation” (Nature Communications, 2020).
# “And” between values parts separate entries of the source, which are not always exact repeats. Identical values can stand only once.
# What was measured:
# [1] = system: Raji cells; assay: Cell viability (CCK-8) of Raji cells with PCM4 and DOX; assay type: cell-based, human; conditions: result in words
# [2] = system: primary human DLBCL cells (T69); assay: Serial colony formation (P1, P2) in methylcellulose, primary human DLBCL cells (T69); assay type: cell-based; conditions: also Raji and Jurkat (Fig. 6o, Supplementary Fig. 7r, s), result in words
# Source text: (§1) Mouse and human lymphoma cells formed colonies upon serum culture (P1). Single colonies of lymphoma cells were dispersed in methylcellulose-based medium MethoCul^TM M3630 (StemCell, 03630) or MethoCult™SF H4536 (StemCell, 04536). A representative plate was then washed and cells were resuspended and replated. After an additional 14 days, colonies were counted (P2).
# [3] = system: primary mouse BCL cells; assay: Serial colony formation of primary mouse BCL cells from Myc^Eμ mice; assay type: cell-based; conditions: result in words
# Source text: as §1
# [4] = system: MYC target genes; assay: qRT-PCR of MYC target genes; assay type: cell-based, human; conditions: qRT-PCR and RNA-seq; result in words
# Protocol: Total RNA was extracted using TRIzol (Invitrogen, CA, USA) according to the manufacturer’s instructions. Reverse transcription of total cellular RNA was carried out using oligo (dT) primers and M-MLV reverse transcriptase (Transgen Biotech, Beijing, China). PCR was performed using a Mycycler thermal cycler and analyzed using LineGene9600. The PCR primer sequences were as follows: MYC forward, 5′-[…]-3′; MYC reverse, 5′-[…]-3′; GAPDH forward, 5′-[…]-3′; GAPDH reverse, 5′-[…]-3′; TFAP4 forward, 5′-[…]-3′, TFAP4 reverse, 5′-[…]-3′; PLD6 forward, 5′-[…]-3′, PLD6 reverse, 5′-[…]-3′; CCNA1 forward, 5′-[…] GCAG-3′, CCNA1 reverse, 5′-[…]-3′; CCND1 forward, 5′-CCGTCC […]-3′, CCND1 reverse, 5′-[…]-3′; CCNE2 forward, 5′-TTC […]-3′; and CCNE2 reverse, 5′-[…]-3′. The human FBXW7 siRNA sequence was 5′-[…]-3′, the human MYC siRNA sequence was 5′-[…] GCGAA-3′, and the human HUWE1 siRNA sequence was 5′-[…]-3’. TRIB3 siRNAs were produced by RiboBio (Guangzhou, China) and transfected using Lipofectamine RNA interference MAX Transfection Reagent (Life Technologies, CA, USA) according to the manufacturer’s instructions.
# [5] = system: MYC and UBE3B; assay: MYC/UBE3B colocalized foci in Raji cells; assay type: cell-based, human
# Protocol: A total of 1 × 10^6 cells were seeded overnight in a six-well plate. […] The cells were then treated with the Duolink In Situ Red Starter Mouse/Rabbit kit (Sigma Aldrich, DUO92101-1KT) according to the manufacturer’s instructions. Images were captured with an OLYMPUS confocal microscope.
# For immunofluorescence staining, cells seeded on coverslips were briefly washed with PBS and fixed with 4% buffered paraformaldehyde for 15 min, permeabilized with 0.5% Triton X- 100 for 15 min, blocked with 3% BSA for 30 min at 37 °C, and stained with specific primary antibodies followed by corresponding secondary antibodies. Nuclei were counterstained with DAPI. Images were captured using a confocal fluorescent microscope (Olympus Microsystems, CA, USA). Quantitative image analysis was performed with the Imaris 9.3.1 software. Pearson’s coefficient was use to analyze colocalization between two target proteins.
# [6] = system: MYC protein; assay: MYC protein level by immunoblotting in Jurkat and Raji cells; assay type: cell-based, human; conditions: 4 μM, result in words
# Protocol: Co-IP experiments were performed as described previously. Briefly, cells were collected and lysed for 30 min on ice. Soluble lysates were incubated with the indicated antibodies at 4 °C overnight, followed by incubation with Protein A/G Plus-Agarose (Santa Cruz Biotechnology, TX, USA) at 4 °C for 2 h. Soluble lysates were incubated with the indicated Anti-Myc magnetic beads (Bimake.com, B26302), Anti-Flag Affinity Gel (Bimake.com, B23102) or Anti-HA Affinity Gel (Bimake.com, B23302) at 4 °C overnight. Immunocomplexes were separated from the beads and then boiled for 10 min. The precipitated proteins were subjected to SDS-PAGE and blotted with specific antibodies. For immunoblotting assays, proteins were extracted from cells, spleens, or lymphoma tissues using RIPA buffer (Cell Signaling Technology, MA, USA). A BCA Protein Assay Kit was used to determine protein concentrations. Protein extracts were separated by SDS-PAGE, transferred onto PVDF membranes, and subjected to immunoblot analysis. Western blot images were captured by a Tanon 5200 chemiluminescent imaging system (Tanon, Shanghai, […]). Human lymphoma and benign LN paraffin tissue microarrays were purchased from US Biomax (LM482a).
# [7] = system: Myc^Eμ BCL mice; assay: Kaplan-Meier survival of Myc^Eμ BCL mice treated with DOX and peptide; assay type: in vivo, mouse; conditions: DOX 2 mg/kg i.p. once a week and PCM4 5 mg/kg i.v. three times a week, 3 months, result in words
# Protocol: (§2) To evaluate the survival rate, these mice were monitored for 8 months (Myc^Eμ mice). […] During the indicated treatments, tumor burden was evaluated by measuring the tumor volume to determine the therapeutic efficacy in the PDX models.
# [8] = system: DLBCL^T69 PDX; assay: PDX model tumor growth and weight, DLBCL T69; assay type: in vivo, human; conditions: result in words
# Protocol: (§3) Four 5-week-old male NSG mice were implanted subcutaneously with 200 μl of a 1:1 mixture of Matrigel® Basement Membrane Matrix High Concentration (Corning, 354230) and minced fresh tumor fragments resected from lymphoma patients. Approximately 3–4 weeks following implantation, the first-generation mice (G1) were killed, and tumor masses were isolated. The tumor cells were tested for human CD19 (BCL) or CD3 expression (T cell lymphoma), and the remaining tumor mass was cut into 3-mm^3 sections and passaged into 4–5 NSG mice as the second generation (G2). After stable passage of the third generation (G3), the tumor mass of the fourth generation (G4) was equally cut into 3-mm^3 pieces and then passaged subcutaneously into 30–50 NSG mice (100 μl of a 1:2 mixture of Matrigel and tumor tissue) for in vivo treatment (6–8 mice per group, dependent on the experimental drug treatment). During and after treatment with the vehicle control or the indicated agent, tumor burden was evaluated by measuring the tumor volume to determine the therapeutic efficacy in the PDX models. […]
# as §2
# [9] = system: PTCL^T144 PDX; assay: PDX model tumor growth and weight, PTCL T144; assay type: in vivo, human; conditions: result in words
# Protocol: as §3, §2
sequence,measurement,setting,value
"HLYVSPWGGKRREQLKHKLEQLR [PCM4, fused peptide generated by linking CM4 to a cell-penetrating peptide]",effect on Raji cell proliferation in combination with doxorubicin (DOX),[1],synergistically inhibited Raji cell proliferation
same,intrinsic clonogenicity of human lymphoma cells,[2],reduced the intrinsic clonogenicity
same,intrinsic clonogenicity of primary mouse BCL cells,[3],reduced the intrinsic clonogenicity
same,transcription of MYC target genes,[4],suppressed the transcription of MYC target genes
same,Fig 6f. MYC/UBE3B foci per cell,"[5]; 30 Min, single cells, n = 20",12 and 11
same,interaction of MYC and UBE3B,[5]; result in words,rescued the interaction of MYC and UBE3B
same,MYC abundance,[6],reduced the MYC abundance
same,therapeutic efficacy / survival rate in combination with DOX,[7],enhanced the therapeutic efficacy of DOX
same,"growth and weights of tumors, combination of PCM4 and DOX","[8]; PDX T69 (high TRIB3 and MYC expression), PCM4 5 mg/kg and DOX 2 mg/kg",further decreased the growth and weights of tumors
same,tumor growth of PDX,"[8]; PDX T69, NSG mice, PCM4 5 mg/kg i.v. three times a week",inhibited the tumor growth
same,"growth and weights of tumors, combination of PCM4 and DOX","[9]; PDX T144 (high TRIB3 and MYC expression), PCM4 5 mg/kg and DOX 2 mg/kg",further decreased the growth and weights of tumors
same,tumor growth of PDX,"[9]; PDX T144, NSG mice, PCM4 5 mg/kg i.v. three times a week",inhibited the tumor growth
